Assay results reported in ChEMBL document CHEMBL1201862, “PubChem BioAssay data set” (2004).
Activity calls are given as the source filed them.

Legend:
[1] = Luminescent dose response cell-based high throughput screening assay for inhibitors of the Janus kinase 2 mutant JAK2V617F. [Related pubchem assays: 1446 (Primary screen.), 1521 (Confirmation assay.), 1486 (Counter screen.)]; assay type: functional
[2] = target: 5-hydroxytryptamine receptor 1A (Homo sapiens, UniProt P08908); assay type: functional
[3] = target: Luciferin 4-monooxygenase (Photinus pyralis, UniProt P08659); assay: firefly luciferase enzyme inhibitors, dose response, biochemical, luminescence (AID 1891)
[4] = Fluorescence Cell-Based Dose Response to Identify Inhibitors of Thrombin Receptor-Activating Peptide SFLLRN-Mediated P-Selectin Induction on Platelets. [Related pubchem assays: 1663 (Primary HTS), 1889 (retest at dose ), 1891 (counterscreen), 1678 (Project Summary)]; assay type: functional
[5] = Luminescence Cell-Based Dose Confirmation HTS to Identify Inhibitors of Platelet Dense Granule Release. [Related pubchem assays: 1663 (Primary HTS), 1678 (Summary of Project)]; assay type: functional
Protein RecA = target: T1, Protein RecA (Mycobacterium tuberculosis, UniProt P9WHJ3); assay: Fluorescence Cell-Free Homogeneous Dose Retest to Identify Inhibitors of RecA-Intein Splicing Activity. [Related pubchem assays (depositor defined):AID2097, AID2223, AID489010, AID492950]; assay type: functional
T1 sequence (P9WHJ3 whole entry): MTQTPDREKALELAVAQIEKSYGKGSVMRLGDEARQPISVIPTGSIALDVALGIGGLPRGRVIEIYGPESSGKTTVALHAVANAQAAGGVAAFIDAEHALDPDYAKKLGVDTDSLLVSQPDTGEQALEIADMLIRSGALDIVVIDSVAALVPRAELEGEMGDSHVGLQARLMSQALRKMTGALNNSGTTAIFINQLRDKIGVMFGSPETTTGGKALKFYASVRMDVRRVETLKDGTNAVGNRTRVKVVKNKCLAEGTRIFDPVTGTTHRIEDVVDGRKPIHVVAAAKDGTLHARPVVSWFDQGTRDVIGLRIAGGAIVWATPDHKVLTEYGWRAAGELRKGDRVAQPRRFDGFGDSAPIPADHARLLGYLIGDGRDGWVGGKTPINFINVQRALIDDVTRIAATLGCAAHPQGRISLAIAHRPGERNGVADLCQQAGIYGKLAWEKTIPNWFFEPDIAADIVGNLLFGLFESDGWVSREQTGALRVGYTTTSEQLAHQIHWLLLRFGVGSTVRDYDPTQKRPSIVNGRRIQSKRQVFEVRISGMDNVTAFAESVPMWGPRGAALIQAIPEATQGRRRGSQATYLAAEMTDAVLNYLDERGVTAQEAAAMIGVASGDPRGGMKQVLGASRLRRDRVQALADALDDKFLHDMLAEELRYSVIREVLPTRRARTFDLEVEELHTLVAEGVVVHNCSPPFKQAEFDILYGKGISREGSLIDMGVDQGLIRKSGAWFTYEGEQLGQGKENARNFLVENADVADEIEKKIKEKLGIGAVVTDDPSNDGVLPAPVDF

[6] = Luminescence Cell-Based Dose Confirmation HTS to Identify Activators of 5'UTR Stem-Loop Driven Alpha-Synuclein mRNA Translation in H4 Neuroglioblastoma Cells. [Related pubchem assays: 1829 (Project Summary), 1814 (Primary HTS)]; assay type: functional
[7] = target: T2, Sentrin-specific protease 8 (Homo sapiens, UniProt Q96LD8); assay type: functional
T2 sequence (Q96LD8 whole entry): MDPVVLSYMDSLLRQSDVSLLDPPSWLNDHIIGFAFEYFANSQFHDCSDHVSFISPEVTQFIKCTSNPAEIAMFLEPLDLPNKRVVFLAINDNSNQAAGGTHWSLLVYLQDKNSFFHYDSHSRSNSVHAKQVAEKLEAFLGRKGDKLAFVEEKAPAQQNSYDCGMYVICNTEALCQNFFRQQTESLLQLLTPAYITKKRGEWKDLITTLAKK

Nonstructural protein 1 = Nonstructural protein 1 (Influenza A virus, UniProt Q194T2); assay type: functional, Influenza A virus (A/California/07/2009(H1N1))
[8] = Luminescence Cell-Based Dose Response HTS to Identify Activators of Luciferase Translation or Activity in H4 […] Cells. [Related pubchem assays: 1829 (Project Summary), 1814 (Primary HTS)]; assay type: functional
H4 = assay: Luminescence Cell-Based Dose Response HTS to Identify Activators of 5'UTR Stem-Loop Driven Prion Protein mRNA Translation in H4 Neuroglioblastoma Cells. [Related pubchem assays: 1829 (Project Summary), 1814 (Primary HTS)]; assay type: functional; details: Homo sapiens
[9] = target: T2, Sentrin-specific protease 8; assay type: functional; remark: listed apart in the source
[10] = target: T3, Replicative DNA helicase DnaB (Mycobacterium tuberculosis, UniProt P9WMR3); assay: DnaB intein splicing inhibitors, dose response, biochemical, cell-free fluorescence (AID 449749); assay type: functional
T3 sequence (P9WMR3 whole entry): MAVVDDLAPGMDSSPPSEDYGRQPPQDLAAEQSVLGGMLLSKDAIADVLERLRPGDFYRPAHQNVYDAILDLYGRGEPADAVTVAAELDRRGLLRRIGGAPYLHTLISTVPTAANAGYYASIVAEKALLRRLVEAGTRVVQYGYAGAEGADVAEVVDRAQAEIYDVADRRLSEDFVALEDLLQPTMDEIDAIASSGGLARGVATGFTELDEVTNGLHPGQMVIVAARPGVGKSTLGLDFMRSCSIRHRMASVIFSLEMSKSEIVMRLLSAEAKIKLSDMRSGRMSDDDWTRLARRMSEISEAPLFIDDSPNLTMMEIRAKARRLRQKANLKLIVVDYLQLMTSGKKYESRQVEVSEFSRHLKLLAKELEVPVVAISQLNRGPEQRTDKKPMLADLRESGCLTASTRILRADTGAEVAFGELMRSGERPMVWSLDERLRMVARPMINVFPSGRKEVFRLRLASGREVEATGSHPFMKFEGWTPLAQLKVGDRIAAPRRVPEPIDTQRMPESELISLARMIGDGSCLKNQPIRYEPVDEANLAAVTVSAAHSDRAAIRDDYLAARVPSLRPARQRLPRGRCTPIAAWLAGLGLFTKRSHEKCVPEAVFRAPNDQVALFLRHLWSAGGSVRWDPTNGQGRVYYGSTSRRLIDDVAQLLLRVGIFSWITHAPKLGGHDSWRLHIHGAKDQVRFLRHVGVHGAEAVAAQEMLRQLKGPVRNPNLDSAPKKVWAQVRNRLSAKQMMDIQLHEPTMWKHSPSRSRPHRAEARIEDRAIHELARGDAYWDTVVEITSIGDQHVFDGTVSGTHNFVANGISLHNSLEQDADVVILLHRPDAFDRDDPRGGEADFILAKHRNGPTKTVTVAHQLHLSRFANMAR

[11] = cytotoxicity toward NIH3T3 fibroblasts, dose response, counter-screen, cell-based, ATP luminescence, mouse fibroblasts (AID 2010); assay type: functional;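 also: cells exposed to compound for about 90 hours before reading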
Caspase-3 = target: T4, Caspase-3 (Homo sapiens, UniProt P42574); assay: Dose-response confirmation of uHTS inhibitor hits of Sentrin-Specific Protease 8 in a Caspase-3 Fluorescence assay.; assay type: functional
T4 sequence (P42574 whole entry): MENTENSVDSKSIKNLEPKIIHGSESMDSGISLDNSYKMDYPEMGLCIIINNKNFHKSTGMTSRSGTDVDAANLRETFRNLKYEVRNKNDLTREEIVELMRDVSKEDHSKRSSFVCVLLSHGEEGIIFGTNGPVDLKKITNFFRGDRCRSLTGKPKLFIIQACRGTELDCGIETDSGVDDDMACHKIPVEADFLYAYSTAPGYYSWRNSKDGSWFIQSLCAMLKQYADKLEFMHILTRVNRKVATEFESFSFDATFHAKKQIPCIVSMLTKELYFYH

[12] = target: Photoreceptor-specific nuclear receptor (Homo sapiens, UniProt Q9Y5X4); assay: NR2E3 inverse agonists, dose response, biochemical, TR-FRET (AID 463256); assay type: functional
[13] = inhibitors of intracellular T. cruzi replication, confirmation, NIH3T3 host cells, beta-gal luminescence (AID 2044); assay type: functional, cell-based;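 also: intracellular parasites grown in NIH/3T3 mouse fibroblasts as host cells; luminescent beta-galactosidase reporter signal from transgenic T. cruzi replicating inside host cells; inhibitors lower the luminescence signal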
[14] = target: Peroxisome proliferator-activated receptor gamma/Nuclear receptor corepressor 2 (Homo sapiens, UniProt P37231+Q9Y618); assay: Counterscreen for NR2E3 inverse agonists: TR-FRET-based biochemical high throughput dose response assay to identify inverse agonists of the interaction between peroxisome proliferator-activated receptor gamma (PPARg) and nuclear receptor co-repressor 2 (NCOR2).; assay type: functional
Orexin receptor type 2 [15] = target: T5, Orexin receptor type 2 (Homo sapiens, UniProt O43614); assay: Counterscreen assay for antagonists of the orexin 1 receptor (OX1R; HCRTR1): Homogeneous Time Resolved Fluorescence (HTRF)-based cell-based dose response assay for antagonists of the orexin 2 receptor (OX2R; HCRTR2), run by assay provider.; assay type: functional
T5 sequence (O43614 whole entry): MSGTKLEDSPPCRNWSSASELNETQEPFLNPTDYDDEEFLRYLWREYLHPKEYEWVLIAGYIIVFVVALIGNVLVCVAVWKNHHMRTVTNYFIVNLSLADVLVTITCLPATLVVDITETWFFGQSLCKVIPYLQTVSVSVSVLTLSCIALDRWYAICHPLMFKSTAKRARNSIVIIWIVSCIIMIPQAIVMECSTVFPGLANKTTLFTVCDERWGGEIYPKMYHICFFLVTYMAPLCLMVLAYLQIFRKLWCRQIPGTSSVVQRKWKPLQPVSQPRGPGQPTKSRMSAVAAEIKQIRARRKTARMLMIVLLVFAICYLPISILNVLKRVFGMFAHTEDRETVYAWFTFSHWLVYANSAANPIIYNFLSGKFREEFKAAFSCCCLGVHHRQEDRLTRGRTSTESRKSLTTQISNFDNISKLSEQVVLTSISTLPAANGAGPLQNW

[16] = Counterscreen for antagonists of the orexin 1 receptor (OX1R; HCRTR1): Fluorescence-based cell-based high throughput dose response assay to identify antagonists of the parental CHO cell line. [Related pubchem assays (depositor defined):AID434989, AID435008, AID463079, AID485270, AID492963, AID492964, AID492965, AID493232, AID504699, AID504701]; assay type: functional
[17] = target: DNA dC->dU-editing enzyme APOBEC-3G (Homo sapiens, UniProt Q9HC16); assay: Dose Response confirmation of small molecule APOBEC3G DNA Deaminase Inhibitors via a fluorescence-based single-stranded DNA deaminase assay. [Related pubchem assays (depositor defined):AID493012, AID493028]; assay type: functional
Orexin receptor type 2 [18] = target: T5, Orexin receptor type 2; assay: Counterscreen assay for antagonists of the orexin 1 receptor (OX1R; HCRTR1): Fluorescence-based cell-based dose response assay for antagonists of the orexin 2 receptor (OX2R; HCRTR2), run by assay provider.; assay type: functional
CHO-K1 = assay: Counterscreen for antagonists of the orexin 1 receptor (OX1R; HCRTR1): Homogeneous time resolved fluorescence (HTRF)-based cell-based dose response assay to identify antagonists of the parental CHO-K1 cell line. [Related pubchem assays (depositor defined):AID434989, AID435008, AID463079, AID485270, AID492963, AID492964, AID492965, AID493232, AID504699, AID504701]; assay type: functional; details: Cricetulus griseus;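 also: potency for inhibition of ATP-stimulated IP1 production as antagonists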
[19] = target: Ubiquitin carboxyl-terminal hydrolase BAP1 (Homo sapiens, UniProt Q92560); assay: BAP1 deubiquitinase inhibitors, dose response, biochemical (AID 714); assay type: functional
[20] = target: T6, Orexin/Hypocretin receptor type 1 (Homo sapiens, UniProt O43613); assay: Fluorescence-based cell-based high throughput dose response assay for antagonists of the orexin 1 receptor (OX1R; HCRTR1). [Related pubchem assays (depositor defined):AID434989, AID435008, AID463079, AID485270, AID492963, AID492964, AID492965, AID493232, AID504717, AID504718]; assay type: functional
T6 sequence (O43613 whole entry): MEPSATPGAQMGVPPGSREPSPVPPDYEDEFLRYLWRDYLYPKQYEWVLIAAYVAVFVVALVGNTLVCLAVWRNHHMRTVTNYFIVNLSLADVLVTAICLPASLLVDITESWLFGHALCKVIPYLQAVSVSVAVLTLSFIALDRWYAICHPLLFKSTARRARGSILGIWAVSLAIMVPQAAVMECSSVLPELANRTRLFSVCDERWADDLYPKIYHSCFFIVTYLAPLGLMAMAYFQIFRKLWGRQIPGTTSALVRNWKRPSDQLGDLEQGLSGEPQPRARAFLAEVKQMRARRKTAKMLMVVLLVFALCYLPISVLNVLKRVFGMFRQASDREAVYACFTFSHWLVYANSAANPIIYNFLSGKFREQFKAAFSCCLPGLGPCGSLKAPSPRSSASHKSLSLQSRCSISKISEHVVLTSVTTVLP

[21] = target: T6, Orexin/Hypocretin receptor type 1; assay: Homogeneous Time Resolved Fluorescence (HTRF)-based cell-based high throughput dose response assay for antagonists of the orexin 1 receptor (OX1R; HCRTR1). [Related pubchem assays (depositor defined):AID434989, AID435008, AID463079, AID485270, AID492963, AID492964, AID492965, AID493232, AID504717, AID504718]; assay type: functional

Luciferin 4-monooxygenase, sequence (P08659 whole entry): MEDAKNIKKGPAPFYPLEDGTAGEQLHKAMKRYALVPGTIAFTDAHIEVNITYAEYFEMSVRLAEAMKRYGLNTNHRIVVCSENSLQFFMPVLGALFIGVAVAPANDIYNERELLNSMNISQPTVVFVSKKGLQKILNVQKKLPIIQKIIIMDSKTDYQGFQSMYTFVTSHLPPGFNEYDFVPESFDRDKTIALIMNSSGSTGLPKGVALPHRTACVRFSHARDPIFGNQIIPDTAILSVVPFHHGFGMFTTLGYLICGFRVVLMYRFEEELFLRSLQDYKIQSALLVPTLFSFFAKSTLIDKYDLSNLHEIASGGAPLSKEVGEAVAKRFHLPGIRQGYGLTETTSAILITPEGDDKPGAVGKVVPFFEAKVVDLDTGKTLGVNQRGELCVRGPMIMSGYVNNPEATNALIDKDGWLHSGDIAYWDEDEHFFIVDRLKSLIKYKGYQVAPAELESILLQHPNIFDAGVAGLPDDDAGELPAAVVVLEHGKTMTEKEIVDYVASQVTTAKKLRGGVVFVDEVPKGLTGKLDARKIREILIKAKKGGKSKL
Ubiquitin carboxyl-terminal hydrolase BAP1, sequence (Q92560 whole entry): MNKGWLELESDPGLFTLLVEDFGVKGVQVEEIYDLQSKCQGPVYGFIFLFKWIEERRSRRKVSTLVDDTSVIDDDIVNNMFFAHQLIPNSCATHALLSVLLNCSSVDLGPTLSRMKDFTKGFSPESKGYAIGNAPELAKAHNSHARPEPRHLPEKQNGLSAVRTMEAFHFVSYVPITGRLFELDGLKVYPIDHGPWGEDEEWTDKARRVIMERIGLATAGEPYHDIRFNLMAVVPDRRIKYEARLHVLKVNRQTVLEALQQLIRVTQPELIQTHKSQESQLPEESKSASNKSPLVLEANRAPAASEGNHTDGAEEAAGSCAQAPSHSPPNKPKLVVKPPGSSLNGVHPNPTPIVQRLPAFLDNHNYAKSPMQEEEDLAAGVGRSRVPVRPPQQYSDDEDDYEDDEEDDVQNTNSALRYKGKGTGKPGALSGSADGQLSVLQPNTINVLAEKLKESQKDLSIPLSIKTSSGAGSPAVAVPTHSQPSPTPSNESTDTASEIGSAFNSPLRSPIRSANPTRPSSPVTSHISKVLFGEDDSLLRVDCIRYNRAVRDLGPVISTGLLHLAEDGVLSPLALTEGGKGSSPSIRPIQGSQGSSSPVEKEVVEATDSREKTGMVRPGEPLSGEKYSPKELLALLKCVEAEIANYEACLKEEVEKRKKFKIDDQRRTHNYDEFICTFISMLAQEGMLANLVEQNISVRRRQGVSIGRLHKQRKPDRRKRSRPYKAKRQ
Peroxisome proliferator-activated receptor gamma/Nuclear receptor corepressor 2, sequence (P37231 whole entry): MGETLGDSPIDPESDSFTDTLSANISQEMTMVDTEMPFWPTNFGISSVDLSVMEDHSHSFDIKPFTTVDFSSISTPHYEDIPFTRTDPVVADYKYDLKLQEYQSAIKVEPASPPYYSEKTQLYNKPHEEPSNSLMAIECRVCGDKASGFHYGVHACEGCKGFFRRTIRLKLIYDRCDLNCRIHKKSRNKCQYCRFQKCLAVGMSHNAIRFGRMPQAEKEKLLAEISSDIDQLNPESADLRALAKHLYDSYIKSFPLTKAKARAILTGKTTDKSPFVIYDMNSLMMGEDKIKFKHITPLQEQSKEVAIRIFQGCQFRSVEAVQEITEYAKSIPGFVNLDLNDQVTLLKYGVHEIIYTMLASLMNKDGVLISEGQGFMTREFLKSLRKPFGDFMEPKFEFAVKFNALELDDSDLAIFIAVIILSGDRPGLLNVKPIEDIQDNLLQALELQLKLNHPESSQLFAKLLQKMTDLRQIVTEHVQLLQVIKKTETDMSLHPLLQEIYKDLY
Peroxisome proliferator-activated receptor gamma/Nuclear receptor corepressor 2, sequence (Q9Y618 whole entry): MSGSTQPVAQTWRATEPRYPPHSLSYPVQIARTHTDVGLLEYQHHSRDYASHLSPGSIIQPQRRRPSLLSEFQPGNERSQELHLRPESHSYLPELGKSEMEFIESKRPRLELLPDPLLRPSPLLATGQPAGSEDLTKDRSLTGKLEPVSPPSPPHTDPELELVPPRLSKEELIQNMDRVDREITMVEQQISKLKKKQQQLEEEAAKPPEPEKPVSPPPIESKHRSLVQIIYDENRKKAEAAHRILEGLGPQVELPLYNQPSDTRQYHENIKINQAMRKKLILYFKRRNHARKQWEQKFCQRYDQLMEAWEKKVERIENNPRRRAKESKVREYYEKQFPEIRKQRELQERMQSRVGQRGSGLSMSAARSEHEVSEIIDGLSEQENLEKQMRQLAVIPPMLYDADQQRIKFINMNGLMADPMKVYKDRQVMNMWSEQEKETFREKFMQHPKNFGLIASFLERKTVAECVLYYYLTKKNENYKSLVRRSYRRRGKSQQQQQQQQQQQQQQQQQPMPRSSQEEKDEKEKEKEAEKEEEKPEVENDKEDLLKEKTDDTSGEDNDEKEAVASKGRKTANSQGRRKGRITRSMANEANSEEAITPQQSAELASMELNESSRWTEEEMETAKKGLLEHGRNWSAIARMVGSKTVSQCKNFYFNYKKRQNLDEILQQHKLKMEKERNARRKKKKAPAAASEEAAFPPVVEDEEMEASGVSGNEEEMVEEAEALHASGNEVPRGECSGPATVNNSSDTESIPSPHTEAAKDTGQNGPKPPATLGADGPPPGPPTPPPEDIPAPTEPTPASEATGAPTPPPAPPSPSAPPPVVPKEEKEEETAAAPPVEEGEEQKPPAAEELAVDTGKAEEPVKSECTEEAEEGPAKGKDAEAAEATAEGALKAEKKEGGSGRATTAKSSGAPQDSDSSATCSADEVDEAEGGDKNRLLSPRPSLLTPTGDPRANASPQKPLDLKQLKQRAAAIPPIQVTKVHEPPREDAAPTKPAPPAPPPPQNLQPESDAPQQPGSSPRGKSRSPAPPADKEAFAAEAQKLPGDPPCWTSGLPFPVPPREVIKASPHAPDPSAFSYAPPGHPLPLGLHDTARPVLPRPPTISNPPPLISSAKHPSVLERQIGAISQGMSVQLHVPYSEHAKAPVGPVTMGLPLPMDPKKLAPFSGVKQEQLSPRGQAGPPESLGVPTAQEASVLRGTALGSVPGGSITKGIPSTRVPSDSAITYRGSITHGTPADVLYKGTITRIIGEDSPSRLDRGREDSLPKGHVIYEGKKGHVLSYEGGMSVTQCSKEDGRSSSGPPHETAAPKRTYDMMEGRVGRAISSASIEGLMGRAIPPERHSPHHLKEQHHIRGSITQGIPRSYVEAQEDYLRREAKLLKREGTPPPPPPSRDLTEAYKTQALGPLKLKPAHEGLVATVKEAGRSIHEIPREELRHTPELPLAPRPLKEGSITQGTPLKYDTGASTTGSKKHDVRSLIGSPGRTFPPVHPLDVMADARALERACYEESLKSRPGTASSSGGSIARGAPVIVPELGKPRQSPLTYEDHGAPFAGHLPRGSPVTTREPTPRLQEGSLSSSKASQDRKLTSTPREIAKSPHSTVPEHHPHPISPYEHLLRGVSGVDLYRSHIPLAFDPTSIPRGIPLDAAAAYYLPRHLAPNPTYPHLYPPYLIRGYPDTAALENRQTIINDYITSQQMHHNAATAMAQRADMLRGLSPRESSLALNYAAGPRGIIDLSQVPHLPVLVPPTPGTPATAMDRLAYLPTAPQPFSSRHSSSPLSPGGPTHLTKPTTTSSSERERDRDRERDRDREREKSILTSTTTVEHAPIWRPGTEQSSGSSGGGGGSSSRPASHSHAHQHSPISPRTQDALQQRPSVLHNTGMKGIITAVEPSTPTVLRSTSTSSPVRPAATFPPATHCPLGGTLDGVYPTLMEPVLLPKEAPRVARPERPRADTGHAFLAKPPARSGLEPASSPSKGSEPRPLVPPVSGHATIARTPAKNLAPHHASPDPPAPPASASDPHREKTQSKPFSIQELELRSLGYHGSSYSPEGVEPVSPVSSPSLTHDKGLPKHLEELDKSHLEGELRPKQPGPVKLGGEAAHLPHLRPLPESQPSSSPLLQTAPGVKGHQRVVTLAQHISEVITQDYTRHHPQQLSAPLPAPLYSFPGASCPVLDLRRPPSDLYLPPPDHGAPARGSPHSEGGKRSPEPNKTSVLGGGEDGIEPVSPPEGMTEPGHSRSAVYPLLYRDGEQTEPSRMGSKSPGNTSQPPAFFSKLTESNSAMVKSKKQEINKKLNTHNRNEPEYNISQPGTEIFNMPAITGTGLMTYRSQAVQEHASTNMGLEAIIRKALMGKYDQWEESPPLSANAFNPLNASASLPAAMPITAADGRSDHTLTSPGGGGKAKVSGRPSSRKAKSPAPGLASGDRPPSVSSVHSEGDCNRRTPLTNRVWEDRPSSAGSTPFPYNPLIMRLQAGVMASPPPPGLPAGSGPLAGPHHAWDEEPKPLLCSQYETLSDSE
Nonstructural protein 1, sequence (Q194T2 whole entry): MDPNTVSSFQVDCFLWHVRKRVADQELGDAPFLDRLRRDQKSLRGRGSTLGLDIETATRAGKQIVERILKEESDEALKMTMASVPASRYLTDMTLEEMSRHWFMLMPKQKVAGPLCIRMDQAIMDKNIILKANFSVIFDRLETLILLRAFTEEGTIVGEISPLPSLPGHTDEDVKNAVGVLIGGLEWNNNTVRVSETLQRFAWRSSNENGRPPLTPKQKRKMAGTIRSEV
Photoreceptor-specific nuclear receptor, sequence (Q9Y5X4 whole entry): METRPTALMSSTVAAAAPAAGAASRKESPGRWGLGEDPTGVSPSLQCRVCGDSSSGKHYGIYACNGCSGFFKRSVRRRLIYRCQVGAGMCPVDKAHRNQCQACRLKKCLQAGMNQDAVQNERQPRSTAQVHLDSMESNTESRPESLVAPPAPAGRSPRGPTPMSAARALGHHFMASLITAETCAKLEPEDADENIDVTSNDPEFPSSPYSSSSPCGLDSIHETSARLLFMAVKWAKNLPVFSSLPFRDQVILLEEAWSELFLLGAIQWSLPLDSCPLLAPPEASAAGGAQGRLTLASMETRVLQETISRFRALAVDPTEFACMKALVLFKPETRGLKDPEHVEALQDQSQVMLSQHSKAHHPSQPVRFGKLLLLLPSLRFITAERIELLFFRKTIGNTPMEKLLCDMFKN

CC(C)(C)OC(=O)N[C@@H](Cc1ccccc1)c1nnc(S(=O)(=O)Cc2cccc(F)c2)o1
IC50 [1]: 0.788 µM (active)

CCCCN(C)CCCNC(=O)Cn1c(=O)sc2ccccc21
EC50 [2]: > 50 µM (not active)

COc1cc2c(cc1OC)-c1cc(N3CCc4ccccc43)nc(=O)n1CC2
EC50 [3]: > 112 µM (not active) | EC50 [4]: < 0.3 µM (active) | EC50 [5]: 6.83 µM (active)

Cc1ccc(S(=O)(=O)NC(=O)Nc2ccc(N(C)C)cc2)cc1
EC50 (Protein RecA): 5.18 µM (active) | EC50 [6]: 7.5 µM (active) | IC50 [7]: 7.83 µM (active) | IC50 (Nonstructural protein 1): 44.1 µM (active) | EC50 [8]: 13 µM (active) | EC50 (H4): 1.97 µM (active) | IC50 [9]: 7.02 µM (active) | AC50 [10]: > 380 µM (inactive) | EC50 [11]: > 60 µM (not active) | IC50 (Caspase-3): 18.1 µM (active) | IC50 [12]: 0.748 µM (active) | EC50 [13]: 1.39 µM (active) | IC50 [14]: 0.503 µM (active)

COC(=O)c1ccccc1NC(=O)c1sc(=S)n(C)c1N
IC50 (Orexin receptor type 2 [15]): > 50 µM (inactive) | IC50 [16]: > 49.8 µM (inactive) | IC50 [17]: 67.7 µM (active) | IC50 (Orexin receptor type 2 [18]): 1.4 µM (active) | IC50 (CHO-K1): > 66.2 µM (inactive) | IC50 [19]: > 50 µM (not active) | IC50 [20]: 1.41 µM (active) | IC50 [21]: 0.407 µM (active)
